23 molecules from patent US6566355B1 (Hoffmann-La Roche Inc., priority 1991, dated 2003) can be followed below.

Where a name gives a salt, the structure may show the parent alone. Read-outs that look alike come from different tables or passages of the source.

For assay [1], the target named is T1, β-lactamase (Citrobacter freundii, UniProt P05193).
T1 construct: Various β-lactamases can be isolated from penicillin- or cephalosporin-resistant bacterial strains such as; endogenous in cells; host or cells: Citrobacter freundii 1203 (enzyme purified from the crude cell extract, after ampicillin induction when necessary)
As to the kind of experiment: biochemical. On the procedure: A. Isolation of the β-lactamases
Various β-lactamases can be isolated from penicillin- or cephalosporin-resistant bacterial strains such as Klebsiella pneumoniae NCTC 418, Proteus vulgaris 1028, Bacillus licheniformis 749/C, Escherichia coli SN01 and Citrobacter freundii 1203. For this purpose, the corresponding strains are cultivated in Tryptic Soy Broth (Difco) and harvested by centrifugation in the last logarithmic growth phase (when necessary 50-100 mg/l of ampicillin are added to the medium towards the end of the log-phase in order to induce the β-lactamase). The thus-obtained bacterial mass is treated with 20 mM Tris-HCl buffer (pH 7.0); the cells are broken open with a French press while cooling. The mixture is centrifuged (20,000 r/min.) for 20-30 minutes and a clear crude extract is obtained.
B. Determination of the β-lactamase activity
The determination of the activity of the isolated β-lactamases can be carried out according to the method of O'Callaghan, C. H. et al. [Antimicr. Ag. Chemother., 1, 283-288 (1972)] using the chromogenic cephalosporin nitrocefin (87/312 from Glaxo). The requisite test batch contains per ml of water: 50 mM phosphate buffer (pH 7.0), 0.1 mM nitrocefin and sufficient enzyme (β-lactamase) to achieve a ΔA/min. of about 0.1. The cleavage of the substrate, which is accompanied by a change in colour, is effected at 37° C. and is followed quantitatively at 482 nm using a spectral photometer.
C. Determination of the β-lactamase-inhibiting activity of the compounds of general formula I
The above-described cleavage of the chromogenic substrate by β-lactamases (test B.) can be inhibited by the addition of compounds of general formula I (inhibitors). […] As a measurement for the affinity of the particular tested inhibitor to the β-lactamase, which is a measurement of the strength of the inhibitor, there serves that concentration which inhibits by 50% (IC 50 in nM) the cleavage of the substrate (nitrocefin) effected under the above test conditions (test B) in the absence of an inhibitor. […] The determination of the IC50 was effected by means of a graph.
(Test organism: Citrobacter freundii)

Assay [2] relates to Citrobacter freundii. The assay is described as follows: MIC in vitro of a 1:4 combination of ceftriaxone with a compound of formula I (test D). In kind it is cell-based. Particulars: 1:4 combination of ceftriaxone with the compound. As to the method: D. Determination of the β-lactamase-inhibiting activity by combination of a compound of general formula I with ceftriaxone
The minimum inhibitory concentration in vitro (MIC in μg/ml) of a 1:4 combination of ceftriaxone with a compound of formula I against Citrobacter freundii is measured and compiled in Table 2 hereinafter.

The mark [3] stands for this setting: IC 50 nM, isolated β-lactamase of Citrobacter freundii, substrate nitrocefin 0.1 mM, 15 minutes pre-incubation with inhibitor, 37° C., pH 7.0.

T1 sequence (P05193 21-381): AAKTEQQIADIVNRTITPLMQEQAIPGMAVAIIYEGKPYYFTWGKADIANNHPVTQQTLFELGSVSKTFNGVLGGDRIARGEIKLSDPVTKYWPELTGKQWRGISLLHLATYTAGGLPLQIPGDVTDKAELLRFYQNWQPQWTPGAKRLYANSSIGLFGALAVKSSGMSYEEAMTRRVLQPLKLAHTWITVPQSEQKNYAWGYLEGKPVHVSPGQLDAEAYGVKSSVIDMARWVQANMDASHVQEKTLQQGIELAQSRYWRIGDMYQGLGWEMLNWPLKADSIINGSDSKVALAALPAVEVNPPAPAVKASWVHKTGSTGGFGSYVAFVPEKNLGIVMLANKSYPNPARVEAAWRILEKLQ

In general, MIC refers to the lowest concentration that inhibits growth of the organism. As for `Cc1nnc(SCC(=O)N2CC[C@@H]3[C@H]2C(=O)N3S(=O)(=O)[O-])s1.[Na+]` [5(m), (1S,5R)-2-[[(5-Methyl-1,3,4-thiadiazol-2-yl)thio]acetyl]-7-oxo-2,6-diazabicyclo[3.2.0]heptane-6-sulphonic acid sodium salt], the IC50 in assay [1] (setting [3]) stood at 24 nM. In assay [2], the “MIC” value is 0.5 µg/mL.
`NC(C(=O)N1CC[C@@H]2[C@H]1C(=O)N2S(=O)(=O)O)c1ccc(O)cc1` (mixture of isomers) [6(s), (1S,5R)-2-[R,S-Amino-(4-hydroxyphenyl)-acetyl]-7-oxo-2,6-diazabicyclo[3.2.0]heptane-6-sulphonic acid sodium salt] returned an IC50 in assay [1] of 584 nM. Moreover, the “MIC” value in assay [2] stood at 4 µg/mL.
In assay [1], `O=C1SCC[C@H]1NC(=O)N1CC[C@@H]2[C@H]1C(=O)N2S(=O)(=O)O` [17(u), (1S,5R)-7-Oxo-2-(R)-(2-oxo-3-tetrahydrothienyl-carbamoyl)-2,6-diazabicyclo[3.2.0]heptane-6-sulphonic acid sodium salt] showed an IC50 of 62 nM. In assay [2], the “MIC” value worked out at 2 µg/mL.
The like results for `O=C(CNc1cc[nH]c(=O)n1)N1CC[C@@H]2[C@H]1C(=O)N2S(=O)(=O)O` [23(f), (1S,5R)-7-Oxo-(2-oxo-1,2-dihydro-pyrimidin-4-ylaminoacctyl)-2,6-diazabicyclo[3.2.0]heptane-6-sulfonic acid sodium salt] were, in that order, 30 nM and 0.5 µg/mL.
`O=C(O)C(C(=O)N1CC[C@@H]2[C@H]1C(=O)N2S(=O)(=O)O)c1ccsc1` (mixture of isomers) [6(e), (R/S)-α-(1S,5R)-2-[2-carboxy-2-(3-thienyl)acetyl]-7-oxo-2,6-diazabicyclo[3.2.0]heptane-6-sulphonic acid triethylamine salt (1:1)] gave an IC50 in assay [1] of 465 nM. In addition, in assay [2], the “MIC” value amounted to 4 µg/mL.
Take `O=C(CNc1ccc(O)cc1)N1CC[C@@H]2[C@H]1C(=O)N2S(=O)(=O)[O-].[Na+]` [6(v), (1S,5R)-2-(4-Hydroxy-phenylaminoacetyl)-7-oxo-2,6-diazabicyclo[3.2.0]heptane-6-sulfonic acid sodium salt]: the IC50 in assay [1] (setting [3]) worked out at 3.5 nM. For the same molecule, the “MIC” value in assay [2] was found to be 8 µg/mL.
Regarding `NC(C(=O)N1CC[C@@H]2[C@H]1C(=O)N2S(=O)(=O)[O-])c1ccccc1F.[Na+]` (mixture of isomers) [8(c), (1S,5R)-2-[DL-2-(o-Fluorophenyl)glycyl]-7-oxo-2,6-diazabicyclo[3.2.0]heptane-6-sulphonic acid sodium salt], the IC50 in assay [1] (setting [3]) is 120 nM. Besides, in assay [2], the “MIC” value was 2 µg/mL.
Regarding `CC(C)=C[C@@H]1[C@@H](C(=O)N2CC[C@@H]3[C@H]2C(=O)N3S(=O)(=O)[O-])C1(C)C.[Na+]` [23(h), (1S,5R)-2-[(1R,3R)-2,2-Dimethyl-3-(2-methyl-propenyl)-cyclopropylcarbonyl]7-oxo-2,6-diazabicyclo[3.2.0]heptane-6-sulfonic acid sodium salt], the IC50 in assay [1] (setting [3]) was determined as 920 nM. Further, the “MIC” value in assay [2] was 16 µg/mL.
In assay [1], `N[C@@H](Cc1ccc(O)cc1)C(=O)N1CC[C@@H]2[C@H]1C(=O)N2S(=O)(=O)O` [Example 6(b), (1S,5R)-7-Oxo-2-L-tyrosyl-2,6-diazabicyclo[3.2.0]heptane-6-sulphonic acid] displayed an IC50 of 310 nM. Besides, the “MIC” value in assay [2] worked out at 4 µg/mL.
Turning to `O=C1C[C@H](NC(=O)N2CC[C@@H]3[C@H]2C(=O)N3S(=O)(=O)[O-])C(=O)N1.[Na+]` [17(ag), (1S,5R)-7-Oxo-2-[(S)-2,5-dioxo-pyrrolidin-3-ylcarbamoyl]-2,6-diazabicyclo[3.2.0]heptane-6-sulfonic acid sodium salt], the IC50 in assay [1] (setting [3]) was 337 nM. In addition, the “MIC” value in assay [2] was 1 µg/mL.
On to `COC1=C(C(=O)O)N2C(=O)C3C2C(C1)CN3C(=O)OC(C)(C)C` [Example 7, (1aS,3aR,6bR)-1,1a,3a,6b-Tetrahydro-5-methoxy-1-oxo-2,6a-diazacyclobuta[cd]indene-2,6(3H,4H)-dicarboxylic acid 2-t-butyl monoester], for which the IC50 in assay [1] (isolated β-lactamase of Citrobacter freundii, substrate nitrocefin 0.1 mM, 15 minutes pre-incubation with inhibitor, 37° C., pH 7.0, read-out: IC 50 nM) was found to be 505 nM. The “MIC” value in assay [2] turned out to be 4 µg/mL.
Molecule `O=C(NCc1ccccn1)N1CC[C@@H]2[C@H]1C(=O)N2S(=O)(=O)[O-].[Na+]` [17(c), (1S,5R)-7-Oxo-2-[(2-pyridylmethyl)carbamoyl]-2,6-diazabicyclo[3.2.0]heptane-6-sulphonic acid sodium salt] came in with an IC50 in assay [1] (setting [3]) of 400 nM. In addition, the “MIC” value in assay [2] was 2 µg/mL.
Molecule `O=C(NCCc1ccc(O)c(O)c1)N1CC[C@@H]2[C@H]1C(=O)N2S(=O)(=O)[O-].[Na+]` [17(k), (1S,5R)-2-[2-(3,4-Dihydroxyphenyl)ethylcarbamoyl]-7-oxo-2,6-diazabicyclo[3.2.0]heptane-6-sulphonic acid sodium salt] returned an IC50 in assay [1] (setting [3]) of 109 nM. In addition, in assay [2], the “MIC” value came out at 16 µg/mL.
The like results for `O=C(COn1nnc2ccccc21)N1CC[C@@H]2[C@H]1C(=O)N2S(=O)(=O)[O-].[Na+]` [5(k), (1S,5R)-2-[[1H-Benzotriazol-1-yl)oxylacetyl]-7-oxo-2,6-diazabicyclo[3.2.0]-heptane-6-sulphonic acid sodium salt] were, in that order, 73 nM and 2 µg/mL.
On to `O=C(Nc1ccccc1)N1CC[C@@H]2[C@H]1C(=O)N2S(=O)(=O)[O-].[Na+]` [Example 2, (1S,5R)-7-Oxo-2-(phenylcarbamoyl)-2,6-diazabicyclo[3.2.0]heptane-6-sulphonic acid sodium salt], for which, in assay [1] (setting [3]), the IC50 was found to be 220 nM. In addition, in assay [2], the “MIC” value came out at 2 µg/mL.
As for `CC(=O)Oc1ccc(/C=C/C(=O)N2CC[C@@H]3[C@H]2C(=O)N3S(=O)(=O)[O-])cc1OC(C)=O.[Na+]` [Example 13, 4-[(E)-2-[[(1S,5R)-7-Oxo-6-sulpho-2,6-diazabicyclo[3.2.0]heptan-2-yl]carbonyl]vinyl]-o-phenylene diacetate sodium salt], the IC50 in assay [1] (setting [3]) was found to be 63 nM. Further, the “MIC” value in assay [2] came to 4 µg/mL.
In the case of `O=C(NC1CCCC1)N1CC[C@@H]2[C@H]1C(=O)N2S(=O)(=O)[O-].[Na+]` [17(ac), (1S,5R)-2-Cyclopentylcarbamoyl-7-oxo-2,6-diazabicyclo[3.2.0]heptane-6-sulfonic acid sodium salt], the IC50 in assay [1] (setting [3]) was found to be 70 nM. Further, the “MIC” value in assay [2] was 1 µg/mL.
`NC(C(=O)N1CC[C@@H]2[C@H]1C(=O)N2S(=O)(=O)O)c1cccc(O)c1` (mixture of isomers) [6(q), (1S,5R)-2-[DL-2-(m-Hydroxyphenyl)glycyl]-7-oxo-2,6-diazabicyclo[3.2.0]heptane-6-sulphonic acid]: the IC50 in assay [1] was 375 nM. In addition, the “MIC” value in assay [2] amounted to 2 µg/mL.
As for `O=C(/C=C/c1c[nH]cn1)N1CC[C@@H]2[C@H]1C(=O)N2S(=O)(=O)[O-].[Na+]` [8(d), (1S,5R)-2-[(E)-3-(4-Imidazolyl)acryloyl]-7-oxo-2,6-diazabicyclo[3.2.0]heptane-6-sulphonic acid sodium salt], the IC50 in assay [1] (setting [3]) was 34 nM. Besides, the “MIC” value in assay [2] came out at 0.5 µg/mL.
Take `O=C(Cn1cnnn1)N1CC[C@@H]2[C@H]1C(=O)N2S(=O)(=O)[O-].[Na+]` [8(b), (1S,5R)-7-Oxo-2-(1H-tetrazol-1-ylacetyl)-2,6-diazabicyclo[3.2.0]heptane-6-sulphonic acid sodium salt]: the IC50 in assay [1] (setting [3]) turned out to be 500 nM. For the same molecule, in assay [2], the “MIC” value came out at 1 µg/mL.
The like results for `O=C(/C=C/c1cc[nH]n1)N1CC[C@@H]2[C@H]1C(=O)N2S(=O)(=O)[O-].[Na+]` [23(e), (1S,5R)-7-Oxo-2-[(E)-3-pyrazol-3-yl-acryloyl]-2,6-diazabicyclo[3.2.0]heptane-6-sulfonic acid sodium salt] were, in that order, 138 nM and 1 µg/mL.
Taken in the same sequence, the figures for `Cn1nnnc1CNC(=O)N1CC[C@@H]2[C@H]1C(=O)N2S(=O)(=O)[O-].[Na+]` [17(z), (1S,5R) -2-[1-Methyl-1H-tetrazol-5-ylmethylcarbamoyl]-7-oxo-2,6-diazabicyclo[3.2.0]heptane-6-sulfonic acid sodium salt] were 98 nM and 1 µg/mL.
As for `Cc1cc(=O)oc2cc(OCC(=O)N3CC[C@@H]4[C@H]3C(=O)N4S(=O)(=O)[O-])ccc12.[Na+]` [23(a), (1S,5R)-2-(4-Methyl-2-oxo-2H-benzopyran-7-yloxyacetyl)-7-oxo-2,6-diazabicyclo[3.2.0]heptane-6-sulfonic acid sodium salt], the IC50 in assay [1] (setting [3]) was 97 nM. Besides, the “MIC” value in assay [2] was found to be 16 µg/mL.
